Test results: ChEMBL document CHEMBL4513141, “CO-ADD screening of NIH (USA) - Clinical Collection” (2021)
≈ marks a conversion by molar mass, not a printed value. Where a name gives a salt, the structure may show the parent alone.

Assays:
Staphylococcus aureus = assay: microbe, parasite or virus in culture; conditions: ATCC 43300, 18 h, ASSAY_TEST Inhibition of Bacterial Growth, detection method Absorption (OD600), MEDIA CAMHB, plate type 384well, NBS, CORNING #3640
Description: Antibacterial activity against Staphylococcus aureus MRSA ATCC 43300 (CO-ADD:GP_020); MIC in CAMBH media, using NBS plates, by OD(600)

Klebsiella pneumoniae = assay: microbe, parasite or virus in culture; conditions: ATCC 700603, 18 h, ASSAY_TEST Inhibition of Bacterial Growth, detection method Absorption (OD600), MEDIA CAMHB, plate type 384well, NBS, CORNING #3640
Description: Antibacterial activity against Klebsiella pneumoniae MDR ATCC 70063 (CO-ADD:GN_003); MIC in CAMBH media using NBS plates, by OD(600)

Escherichia coli = assay: microbe, parasite or virus in culture; conditions: ATCC 25922, 18 h, ASSAY_TEST Inhibition of Bacterial Growth, detection method Absorption (OD600), MEDIA CAMHB, plate type 384well, NBS, CORNING #3640
Description: Antibacterial activity against Escherichia coli ATCC 25922 (CO-ADD:GN_001); MIC in CAMBH media using NBS plates, by OD(600)

Pseudomonas aeruginosa = assay: microbe, parasite or virus in culture; conditions: ATCC 27853, 18 h, ASSAY_TEST Inhibition of Bacterial Growth, detection method Absorption (OD600), MEDIA CAMHB, plate type 384well, NBS, CORNING #3640
Description: Antibacterial activity against Pseudomonas aeruginosa ATCC 27853 (CO-ADD:GN_042); MIC in CAMBH media using NBS plates, by OD(600)

Candida albicans = assay: microbe, parasite or virus in culture; conditions: ATCC 90028, ASSAY_TEST Inhibition of Fungal Growth, detection method Absorption (OD530), plate type 384well, NBS, CORNING #3640
Description: Antifungal activity against Candida albicans ATCC 90028 (CO-ADD:FG_001); MIC in YNB media using NBS plates, by OD630

Acinetobacter baumannii = assay: microbe, parasite or virus in culture; conditions: ATCC 19606, 18 h, ASSAY_TEST Inhibition of Bacterial Growth, detection method Absorption (OD600), MEDIA CAMHB, plate type 384well, NBS, CORNING #3640
Description: Antibacterial activity against Acinetobacter baumannii ATCC 19606 (CO-ADD:GN_034); MIC in CAMBH media using NBS plates, by OD600

HEK293 = assay: cells; format: functional, Homo sapiens, ATCC CRL1573; conditions: Homo sapiens, ATCC CRL1573, HEK293; ASSAY_TEST Inhibition of Cell Viability; detection method Resazurin; Fluorescence (ex560/em590); MEDIA DMEM with 10% FBS; plate type 384well; TC; CORNING #3712; time 18 hr

Description for Cryptococcus neoformans: Antifungal activity against Cryptococcus neoformans H99 ATCC 208821 (CO-ADD:FG_002); MIC in YNB media using NBS plates, by Resazurin OD(600-570)

| MIC (Staphylococcus aureus) | MIC (Klebsiella pneumoniae) | MIC (Escherichia coli) | MIC (Cryptococcus neoformans) | MIC (Pseudomonas aeruginosa) | MIC (Candida albicans) | MIC (Acinetobacter baumannii) | Compound | CC50 (HEK293) |
| --- | --- | --- | --- | --- | --- | --- | --- | --- |
| > 10 µM | > 10 µM | > 10 µM | 5 µM | > 10 µM | 5 µM | > 10 µM | COCc1c(C(C)C)nc(C(C)C)c(/C=C/[C@@H](O)C[C@@H](O)CC(=O)O)c1-c1ccc(F)cc1 [CERIVASTATIN SODIUM] | > 10 µM |
| > 10 µM | > 10 µM | 10 µM (≈ 7.49 µg/mL) | > 10 µM | 10 µM (≈ 7.49 µg/mL) | > 10 µM | > 10 µM | CC[C@H]1OC(=O)[C@H](C)[C@@H](O[C@H]2C[C@@](C)(OC)[C@@H](O)[C@H](C)O2)[C@H](C)[C@@H](O[C@@H]2O[C@H](C)C[C@H](N(C)C)[C@H]2O)[C@](C)(O)C[C@@H](C)CN(C)[C@H](C)[C@@H](O)[C@]1(C)O [AZITHROMYCIN] | > 10 µM |
| 0.312 µM (≈ 0.112 µg/mL) | 2.5 µM (≈ 0.899 µg/mL) | ≤ 0.0781 µM | > 10 µM | 0.312 µM (≈ 0.112 µg/mL) | > 10 µM | 5 µM (≈ 1.8 µg/mL) | CCN1CCN(c2cc3c(cc2F)c(=O)c(C(=O)O)cn3C2CC2)CC1 [ENROFLOXACIN] | > 10 µM |
| > 10 µM | > 10 µM | > 10 µM | 0.625 µM (≈ 0.0807 µg/mL) | > 10 µM | 0.625 µM (≈ 0.0807 µg/mL) | > 10 µM | Nc1nc(=O)[nH]cc1F [FLUCYTOSINE] | > 10 µM |
| > 10 µM | > 10 µM | > 10 µM | 5 µM (≈ 1.48 µg/mL) | > 10 µM | 2.5 µM (≈ 0.741 µg/mL) | > 10 µM | CCN(CC)C(=S)SSC(=S)N(CC)CC | 5.04 µM |
| > 10 µM | > 10 µM | > 10 µM | > 10 µM | > 10 µM | > 10 µM | > 10 µM | C[C@H]1O[C@H](O[C@H]2[C@H](O)[C@@H](O)[C@@H](O[C@H]3[C@H](O)[C@@H](O)C(O)O[C@@H]3CO)O[C@@H]2CO)[C@H](O)[C@@H](O)[C@@H]1N[C@H]1C=C(CO)[C@@H](O)[C@H](O)[C@H]1O (stereo partly specified) [ACARBOSE] | > 10 µM |
| 0.156 µM | 5 µM | ≤ 0.0781 µM | > 10 µM | 0.625 µM | > 10 µM | 2.5 µM | COc1c(N2C[C@@H]3CCCN[C@@H]3C2)c(F)cc2c(=O)c(C(=O)O)cn(C3CC3)c12 [MOXIFLOXACIN HYDROCHLORIDE] | > 10 µM |
| > 10 µM | 5 µM (≈ 1.34 µg/mL) | 5 µM (≈ 1.34 µg/mL) | > 10 µM | > 10 µM | > 10 µM | > 10 µM | Cc1cn([C@H]2C[C@H](N=[N+]=[N-])[C@@H](CO)O2)c(=O)[nH]c1=O [ZIDOVUDINE] | > 10 µM |
| > 10 µM | > 10 µM | 10 µM (≈ 2.44 µg/mL) | > 10 µM | > 10 µM | > 10 µM | > 10 µM | Nc1ncn([C@@H]2O[C@H](CO)[C@@H](O)[C@H]2O)c(=O)n1 [AZACITIDINE] | > 10 µM |
| > 10 µM | > 10 µM | > 10 µM | > 10 µM | 10 µM (≈ 7.48 µg/mL) | > 10 µM | > 10 µM | CC[C@H]1OC(=O)[C@H](C)[C@@H](O[C@H]2C[C@@](C)(OC)[C@@H](O)[C@H](C)O2)[C@H](C)[C@@H](O[C@@H]2O[C@H](C)C[C@H](N(C)C)[C@H]2O)[C@](C)(OC)C[C@@H](C)C(=O)[C@H](C)[C@@H](O)[C@]1(C)O [CLARITHROMYCIN] | > 10 µM |
| > 10 µM | > 10 µM | > 10 µM | > 10 µM | > 10 µM | > 10 µM | > 10 µM | CC1(C)SC2C(NC(=O)COc3ccccc3)C(=O)N2C1C(=O)O (stereo unspecified) | > 10 µM |
| > 10 µM | > 10 µM | > 10 µM | > 10 µM | > 10 µM | > 10 µM | > 10 µM | COc1cc2nc(N3CCN(C(=O)c4ccco4)CC3)nc(N)c2cc1OC | > 10 µM |
| > 10 µM | > 10 µM | > 10 µM | > 10 µM | > 10 µM | > 10 µM | > 10 µM | COC(=O)Nc1nc2cc(C(=O)c3ccc(F)cc3)ccc2[nH]1 [FLUBENDAZOLE] | 7.02 µM |
| 5 µM (≈ 1.98 µg/mL) | 10 µM (≈ 3.95 µg/mL) | 2.5 µM (≈ 0.989 µg/mL) | > 10 µM | > 10 µM | > 10 µM | > 10 µM | C=CC1=C(C(=O)O)N2C(=O)[C@@H](NC(=O)/C(=N\O)c3csc(N)n3)[C@H]2SC1 | > 10 µM |
| > 10 µM | > 10 µM | > 10 µM | > 10 µM | > 10 µM | > 10 µM | > 10 µM | CCc1oc2ccccc2c1C(=O)c1cc(Br)c(O)c(Br)c1 [BENZBROMARONE] | > 10 µM |
| 1.25 µM (≈ 0.581 µg/mL) | > 10 µM | 5 µM (≈ 2.32 µg/mL) | > 10 µM | 2.5 µM (≈ 1.16 µg/mL) | > 10 µM | > 10 µM | CN(C)C1C(=O)C(C(N)=O)=C(O)C2(O)C(=O)C3=C(O)c4c(O)ccc(Cl)c4C(O)C3CC12 (stereo unspecified) | > 10 µM |
| > 10 µM | > 10 µM | > 10 µM | > 10 µM | > 10 µM | > 10 µM | > 10 µM | CCOC(=O)CCC(=O)OC1C(OC2C(C)C(OC3CC(C)(OC)C(O)C(C)O3)C(C)C(=O)OC(CC)C(C)(O)C(O)C(C)C(=O)C(C)CC2(C)O)OC(C)CC1N(C)C (stereo unspecified) | > 10 µM |
| ≤ 0.0781 µM | > 10 µM | 5 µM (≈ 4.24 µg/mL) | > 10 µM | 0.156 µM (≈ 0.132 µg/mL) | > 10 µM | 10 µM (≈ 8.47 µg/mL) | CO[C@H]1/C=C/O[C@@]2(C)Oc3c(C)c(O)c4c(c3C2=O)C2=NC3(CCN(CC(C)C)CC3)NC2=C(NC(=O)/C(C)=C\C=C\[C@H](C)[C@H](O)[C@@H](C)[C@@H](O)[C@@H](C)[C@H](OC(C)=O)[C@@H]1C)C4=O [RIFABUTIN] | > 10 µM |
| > 10 µM | > 10 µM | > 10 µM | > 10 µM | > 10 µM | > 10 µM | > 10 µM | CCOC(=O)C1=C(C)NC(C)=C(C(=O)OCC)C1c1ccccc1/C=C/C(=O)OC(C)(C)C [LACIDIPINE] | > 10 µM |
| 0.625 µM (≈ 0.294 µg/mL) | > 10 µM | > 10 µM | > 10 µM | > 10 µM | > 10 µM | > 10 µM | Cc1onc(-c2c(Cl)cccc2Cl)c1C(=O)N[C@@H]1C(=O)N2[C@@H]1SC(C)(C)[C@@H]2C(=O)O | > 10 µM |
| 5 µM (≈ 2.12 µg/mL) | > 10 µM | 10 µM (≈ 4.24 µg/mL) | > 10 µM | > 10 µM | > 10 µM | > 10 µM | CON=C(C(=O)N[C@@H]1C(=O)N2C(C(=O)O)=C(COC(N)=O)CS[C@H]12)c1ccco1 | > 10 µM |
| 5 µM (≈ 1.37 µg/mL) | > 10 µM | 5 µM (≈ 1.37 µg/mL) | > 10 µM | > 10 µM | > 10 µM | > 10 µM | COc1cc(C)c(Cc2cnc(N)nc2N)cc1OC [ORMETOPRIM] | > 10 µM |
| 10 µM | > 10 µM | > 10 µM | > 10 µM | > 10 µM | > 10 µM | > 10 µM | COc1cccc2c1C(=O)c1c(O)c3c(c(O)c1C2=O)C[C@@](O)(C(=O)CO)C[C@@H]3O[C@H]1C[C@H](N)[C@H](O)[C@H](C)O1 [DOXORUBICIN HYDROCHLORIDE] | > 10 µM |
| 0.312 µM | > 10 µM | 2.5 µM | > 10 µM | 0.312 µM | > 10 µM | > 10 µM | CN(C)c1ccc(O)c2c1C[C@H]1C[C@H]3[C@H](N(C)C)C(O)=C(C(N)=O)C(=O)[C@@]3(O)C(O)=C1C2=O [MINOCYCLINE HYDROCHLORIDE] | 0.0983 µM |

| Compound | MIC (Staphylococcus aureus) | MIC (Klebsiella pneumoniae) | MIC (Escherichia coli) | MIC (Cryptococcus neoformans) | MIC (Pseudomonas aeruginosa) | MIC (Candida albicans) | MIC (Acinetobacter baumannii) | CC50 (HEK293) |
| --- | --- | --- | --- | --- | --- | --- | --- | --- |
| CCn1cc(C(=O)O)c(=O)c2ccc(C)nc21 [NALIDIXIC ACID] | > 10 µM | > 10 µM | > 10 µM | > 10 µM | > 10 µM | > 10 µM | > 10 µM | > 10 µM |
| CC(=O)Oc1ccccc1C(=O)Nc1ncc([N+](=O)[O-])s1 [NITAZOXANIDE] | > 10 µM | > 10 µM | > 10 µM | > 10 µM | > 10 µM | > 10 µM | > 10 µM | > 10 µM |
| CC(C)n1c(/C=C/C(O)CC(O)CC(=O)O)c(-c2ccc(F)cc2)c2ccccc21 (stereo unspecified) [FLUVASTATIN] | > 10 µM | > 10 µM | > 10 µM | > 10 µM | > 10 µM | 5 µM (≈ 2.06 µg/mL) | > 10 µM | > 10 µM |
